Data on three molecules can be found in article PMC11956017, “Design of Benzyl-triazolopyrimidine-Based NADPH Oxidase Inhibitors Leads to the Discovery of a Potent Dual Covalent NOX2/MAOB Inhibitor” (Journal of Medicinal Chemistry, 2025).

Broadly, the IC50 is the concentration at which inhibition is half-maximal.

Bounds are passed on as bounds.

Assay [1] concerns dehydrogenase domain of csNOX5. The assay can be described thus: NADPH depletion assay on csNOX5 dehydrogenase domain. The note with it: 10 μM inhibitor; 1 μM purified protein, 250 μM NADPH. Type of assay: biochemical, Cylindrospermum stagnale. How it is done:
A series of derivatives were synthesized and tested at 10 μM against the dehydrogenase domain of NOX5 from Cylindrospermum stagnale (C. stagnale, CsNOX5; Figure 2B).
The NADPH depletion assay for IC50 determinations was performed as described[10] with modifications for covalent inhibitors, which require longer incubation times. Briefly, the catalytic activity was measured by monitoring the absorbance at 340 nm with a Cary 100 UV–vis spectrophotometer (Varian). A 1 μM portion of purified protein was added in a final volume of 130 μL of 50 mM HEPES pH 7.5 and supplemented with 300 μM FAD. Inhibitors were added at varying concentrations and incubated for 1 h at 25 °C.

A further assay concerns the target T1, human NOX1 (Homo sapiens, UniProt Q9Y5S8).
T1 construct: expressed in transfected cells; host or cells: HEK293 F cells, transient transfection (pEG BacMam vector); isolated membranes; Cytosolic proteins made in E. coli
T1 sequence (Q9Y5S8 1-564): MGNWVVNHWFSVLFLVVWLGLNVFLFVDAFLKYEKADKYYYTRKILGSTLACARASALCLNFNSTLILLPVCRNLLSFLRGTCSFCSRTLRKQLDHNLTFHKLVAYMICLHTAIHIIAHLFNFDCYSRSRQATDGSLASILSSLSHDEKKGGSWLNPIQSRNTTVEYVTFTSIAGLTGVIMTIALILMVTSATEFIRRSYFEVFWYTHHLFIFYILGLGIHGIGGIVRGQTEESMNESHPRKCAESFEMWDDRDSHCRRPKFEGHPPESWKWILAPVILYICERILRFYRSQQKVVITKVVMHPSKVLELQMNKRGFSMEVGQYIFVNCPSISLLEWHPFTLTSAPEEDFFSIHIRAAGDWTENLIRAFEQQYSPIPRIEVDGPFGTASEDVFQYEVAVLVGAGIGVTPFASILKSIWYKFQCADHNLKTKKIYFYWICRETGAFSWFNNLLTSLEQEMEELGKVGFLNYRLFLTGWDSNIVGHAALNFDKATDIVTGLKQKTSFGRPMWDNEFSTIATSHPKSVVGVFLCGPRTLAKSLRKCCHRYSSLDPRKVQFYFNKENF
T1 sequence (P13498 1-195 partner): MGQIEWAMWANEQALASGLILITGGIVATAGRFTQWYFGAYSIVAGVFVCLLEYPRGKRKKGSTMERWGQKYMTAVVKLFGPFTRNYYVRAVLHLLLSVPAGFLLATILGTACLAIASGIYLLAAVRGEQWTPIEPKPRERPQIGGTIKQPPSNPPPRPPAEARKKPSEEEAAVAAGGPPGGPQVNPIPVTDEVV
Description: Human NOX1 isolated membranes, Amplex Red/horseradish peroxidase coupled assay. In kind it is biochemical. To be noted: membrane-embedded, 40 μM NADPH; for IC50: read-out: IC50 on human NOXs, NOX1 (AMPLEX RED). As for the experimental part:
Activity assays for IC50 determinations were performed as previously described[40],[42] with modifications for covalent inhibitors. […] The estimated final protein concentrations based on the heme’s absorbance (ε414 nm = 131,000 M^–1 cm^–1) were 10–20 nM. Compounds were incubated for 1 h at 25 °C at varying concentrations, and reactions were initiated with 40 μM NADPH. Fluorescence was measured using a ClarioStar plate reader (excitation 572 nm/emission 583 nm).

Another assay addresses NOX2 (Homo sapiens, UniProt P04839). Description: Human NOX2 isolated membranes, MCLA assay. In kind it is biochemical. Details: NOX2 was expressed as native protein in X-CGD PLB-985 cells transduced with the RD114 pseudotyped MFGS-NOX2 vector; expressed in transfected cells; host or cells: X-CGD PLB-985 cells transduced with MFGS-NOX2; isolated membranes; Cytosolic proteins made in E. coli. The note with it: for IC50: membrane-embedded, 240 μM NADPH, read-out: IC50 on human NOXs, NOX2 (MCLA). As for the experimental part: IC50 determinations were performed as described, with the same aforementioned modifications for covalent inhibition. Briefly, 20 μg of NOX2-p22^phox membranes was added to a reaction mix with a 65 mM sodium phosphate buffer (pH 7.0), 0.5 μM FAD, 130 μM LiDS, 160 nM p67^phox, p47^phox, Rac1 Q61L, and 1 μM MCLA or 200 μM bovine cytochrome c. The estimated final protein concentration based on the heme’s absorbance was 60 nM. Compounds were incubated for 1 h at 25 °C, at varying concentrations. The reaction started by adding 240 μM NADPH, and measurements were taken by using a GloMax plate reader (Promega; MCLA) or a Cary 100 UV–vis spectrophotometer (Varian; cytochrome c).

A further assay has as its target T2, Purified human NOX2 (Homo sapiens, UniProt P04839).
T2 construct: NOX2 was expressed as native protein in X-CGD PLB-985 cells transduced with the RD114 pseudotyped MFGS-NOX2 vector; made in house; host or cells: X-CGD PLB-985 cells transduced with MFGS-NOX2; Cytosolic proteins made in E. coli
The assay can be described thus: Purified human NOX2-p22phox, NADPH depletion assay. In kind it is biochemical. The note with it: for IC50: 200 nM NOX2, 240 μM NADPH, activated. As for the experimental part:
The NADPH depletion assay on human NOX2 for IC50 determinations was performed as described[40],[42] with variations for covalent inhibition. Briefly, the catalytic activity was measured by monitoring the absorbance at 340 nm with a Cary 100 UV–vis spectrophotometer (Varian). A 200 nM purified NOX2-p22^phox heterodimer was added to a 200 μL reaction mix containing a 65 mM sodium phosphate buffer (pH 7.0), 50 μM FAD, 130 μM LiDS, and 1 μM recombinant p67^phox, p47^phox, and Rac1 Q61L. Inhibitors were added at varying concentrations (7 nM–200 μM) and incubated for 1 h at 25 °C. The reaction was started by the addition of 240 μM NADPH.

Consider `CCCNC(=O)c1ccc(Cn2nnc3c(Sc4nc5ccccc5o4)ncnc32)cc1` [Compound 8a, (4-((7-Benzo[d]oxazol-2-yl-thio)-3H-[1,2,3]triazole[4,5-d]pyrimidin-3-yl)methyl)-N-(propyl)benzamide], for which, in assay [1], the “% INHIBITION csNOX5 DEHYDROGENASE DOMAIN” value stood at 95.6 ± 0.1%. In addition, the IC50 was 32.9 ± 2.9 µM at human NOX1, 2.8 ± 0.05 µM at NOX2 and 3.3 ± 0.06 µM against Purified human NOX2.

`C#CCN(C)Cc1ccc(Cn2nnc3c(Sc4nc5ccccc5o4)ncnc32)cc1` [Compound 9a, N-(4-((7-(Benzo[d]oxazol-2-ylthio)-3H-[1,2,3]triazolo[4,5-d]pyrimidin-3-yl)methyl)benzyl)-N-methylprop-2-yn-1-amine]: in assay [1], the “% INHIBITION csNOX5 DEHYDROGENASE DOMAIN” value amounted to 67.3 ± 4.6%. Also, the figures for the IC50 at human NOX1, at NOX2 and against Purified human NOX2 were 22 ± 6.7 µM, 0.567 ± 0.2 µM and 0.155 ± 0.03 µM, respectively. Also, the “potency against NOX2 relative to VAS2870 (more powerful)” value on NOX2 (NOX2 membranes) is reported as 2 fold. Besides, the “potency on purified NOX2 relative to VAS2870 (more potent)” value on Purified human NOX2 (purified NOX2) is “over 20 fold”.

Take `C#CCNC(=O)c1ccc(Cn2nnc3c(Sc4nc5ccccc5o4)ncnc32)cc1` [Compound 8b, (4-((7-Benzo[d]oxazol-2-yl-thio)-3H-[1,2,3]triazole[4,5-d]pyrimidin-3-yl)methyl)-N-(prop-2-in-1-yl)benzamide]: in assay [1], the “% INHIBITION csNOX5 DEHYDROGENASE DOMAIN” value amounted to 94.6 ± 1.0%. The “IC50 on human NOXs, NOX1 (AMPLEX RED)” value on human NOX1 was “inactive”. The figures for the IC50 at human NOX1, at NOX2 and at Purified human NOX2 were over 100 µM, 17.3 ± 2.6 µM and 20.1 ± 0.5 µM, respectively.
